Measurements as given in patent US20250144094A1 (Erasca, Inc., priority 2021, published 2025).

target: Recombinant human ULK1 (1-649) (Homo sapiens (Human), UniProt O75385); experiment: ULK1 ADP Glo kinase activity assay (MBP substrate); settings: 25° C., 40 minutes, read-out: ULK1 biochemical IC50
Method: Recombinant human ULK1 (1-649) protein expressed in Sf9 insect cells was obtained from SignalChem (Vancouver, BC), catalog #U01-11G. Active kinase was purified via N-terminal GST tag to >85% purity.
ADP GLO Kinase Assay Reagents were obtained from Promega Corp (Madison, WI), catalog #V9104.
MBP (myelin basic protein) substrate, bovine, purified, was obtained from Sigma (St. Louis, MO), catalog #M1891.
ULK1 inhibitor potency was determined using the luminescent ADP Glo Kinase Assay (Promega), a universal ADP detection system that measures kinase activity by quantifying the amount of ADP produced during a kinase reaction. ULK1 kinase reactions are performed in a standard 96-well microplate (20 uL reaction volume) at 25° C. for 40 minutes in the presence or absence of the test compound (12-point dilution series starting at 10 uM). Addition of MBP substrate and ATP initiates the kinase reaction.
The standard ADP Glo assay is performed in two steps. In step one, following the kinase reaction, an equal volume of ADP-Glo™ Reagent (20 uL) is added to terminate the kinase reaction and deplete the remaining ATP. In the second step, the Kinase Detection Reagent (10 uL) is added to simultaneously convert ADP to ATP and allow the newly synthesized ATP to be measured using a luciferase/luciferin reaction. Step two of the ADP Glo assay is performed in a white 384-well plate (20 uL final volume). Thirty minutes after the addition of the Detection reagent, light generated from the luciferase reaction is measured (1 second exposure) using a microplate compatible luminometer (CLARIOstar, BMG Labtech).
Inhibition of ULK1 kinase activity is determined for each test compound by comparison to DMSO only control wells. Inhibitor IC50 was calculated by plotting the change in luminescence after 30 minutes (response) versus inhibitor concentration (in log molar) then applying the four-parameter variable slope curve fit (GraphPad Prism). Inhibition of ULK1 in biochemical assay is found in Table 3.

Recombinant human ULK1 (1-649), sequence (O75385 1-649): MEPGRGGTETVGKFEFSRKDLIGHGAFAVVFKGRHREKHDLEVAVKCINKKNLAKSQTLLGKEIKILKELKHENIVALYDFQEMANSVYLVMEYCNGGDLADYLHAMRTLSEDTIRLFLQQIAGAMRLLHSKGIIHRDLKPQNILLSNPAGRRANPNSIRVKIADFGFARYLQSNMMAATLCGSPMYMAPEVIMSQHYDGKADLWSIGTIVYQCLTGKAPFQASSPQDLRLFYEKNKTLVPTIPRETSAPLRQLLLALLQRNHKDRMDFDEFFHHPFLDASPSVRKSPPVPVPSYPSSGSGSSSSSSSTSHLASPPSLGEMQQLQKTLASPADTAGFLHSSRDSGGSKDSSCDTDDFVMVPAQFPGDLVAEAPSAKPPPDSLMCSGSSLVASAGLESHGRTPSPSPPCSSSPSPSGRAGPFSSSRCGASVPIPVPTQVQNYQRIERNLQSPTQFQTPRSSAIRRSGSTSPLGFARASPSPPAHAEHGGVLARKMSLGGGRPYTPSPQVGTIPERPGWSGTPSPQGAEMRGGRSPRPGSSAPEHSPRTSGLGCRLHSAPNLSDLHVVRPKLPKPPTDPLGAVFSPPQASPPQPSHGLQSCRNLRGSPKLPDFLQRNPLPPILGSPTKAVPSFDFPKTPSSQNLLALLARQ

| IC50 | Compound |
| --- | --- |
| ≤ 10 nM | Cc1sc(-c2nc(Nc3cc4c(cc3Cl)CNCC4)ncc2C(F)(F)F)cc1C(N)=O [Example 45, 5-(2-((7-chloro-1,2,3,4-tetrahydroisoquinolin-6-yl)amino)-5-(trifluoromethyl)pyrimidin-4-yl)-2-methylthiophene-3-carboxamide] |
| ≤ 10 nM | O=C1NCCCc2sc(-c3nc(Nc4cc5c(cc4Cl)CCNC5)ncc3C(F)(F)F)cc21 [Example 46, 2-(2-((6-chloro-1,2,3,4-tetrahydroisoquinolin-7-yl)amino)-5-(trifluoromethyl)pyrimidin-4-yl)-5,6,7,8-tetrahydro-4H-thieno[3,2-c]azepin-4-one] |
| ≤ 10 nM | CN1CCCc2sc(-c3nc(Nc4cc5c(cc4Cl)CNCC5)ncc3C(F)(F)F)cc2C1=O [Example 47, 2-(2-((7-chloro-1,2,3,4-tetrahydroisoquinolin-6-yl)amino)-5-(trifluoromethyl)pyrimidin-4-yl)-5-methyl-5,6,7,8-tetrahydro-4H-thieno[3,2-c]azepin-4-one] |
| ≤ 10 nM | CN1CCC(n2cc(Nc3ncc(C(F)(F)F)c(-c4cc5c(s4)CCNC5=O)n3)c(C3CC3)n2)CC1 [Example 48, 2-(2-((3-cyclopropyl-1-(1-methylpiperidin-4-yl)-1H-pyrazol-4-yl)amino)-5-(trifluoromethyl)pyrimidin-4-yl)-6,7-dihydrothieno[3,2-c]pyridin-4(5H)-one] |
| ≤ 10 nM | CN1CCc2cc(Cl)c(Nc3ncc(C(F)(F)F)c(-c4cc5c(s4)CCCNC5=O)n3)cc2C1 [Example 49, 2-(2-((6-chloro-2-methyl-1,2,3,4-tetrahydroisoquinolin-7-yl)amino)-5-(trifluoromethyl)pyrimidin-4-yl)-5,6,7,8-tetrahydro-4H-thieno[3,2-c]azepin-4-one] |
| > 500 nM | Cc1nc(=O)c2cc(-c3nc(Nc4cc5c(cc4Cl)CNCC5)ncc3C(F)(F)F)sc2[nH]1 [Example 50, 6-(2-((7-chloro-1,2,3,4-tetrahydroisoquinolin-6-yl)amino)-5-(trifluoromethyl)pyrimidin-4-yl)-2-methylthieno[2,3-d]pyrimidin-4(1H)-one] |
| ≤ 10 nM | CCS(=O)(=O)c1csc(-c2nc(Nc3cc4c(cc3Cl)CNCC4)ncc2C(F)(F)F)c1 [Example 51, 7-chloro-N-(4-(4-(ethylsulfonyl)thiophen-2-yl)-5-(trifluoromethyl)pyrimidin-2-yl)-1,2,3,4-tetrahydroisoquinolin-6-amine] |
| ≤ 10 nM | COCCS(=O)(=O)c1csc(-c2nc(Nc3cc4c(cc3Cl)CNCC4)ncc2C(F)(F)F)c1 [Example 52, 7-chloro-N-(4-(4-((2-methoxyethyl)sulfonyl)thiophen-2-yl)-5-(trifluoromethyl)pyrimidin-2-yl)-1,2,3,4-tetrahydroisoquinolin-6-amine] |

Second part, the compound before the results:

| Compound | IC50 |
| --- | --- |
| NS(=O)(=O)c1csc(-c2nc(Nc3cc4c(cc3Cl)CNCC4)ncc2C(F)(F)F)c1 [Example 27, 5-(2-((7-Chloro-1,2,3,4-tetrahydroisoquinolin-6-yl)amino)-5-(trifluoromethyl)pyrimidin-4-yl)thiophene-3-sulfonamide] | ≤ 10 nM |
| O=C1NCCCc2sc(-c3nc(Nc4cc5c(cc4Cl)CNCC5)ncc3C(F)(F)F)cc21 [Example 28, 2-(2-((7-Chloro-1,2,3,4-tetrahydroisoquinolin-6-yl)amino)-5-(trifluoromethyl)pyrimidin-4-yl)-5,6,7,8-tetrahydro-4H-thieno[3,2-c]azepin-4-one] | ≤ 10 nM |
| O=C1NCCc2sc(-c3nc(Nc4cc5c(cc4C4CC4)CNCC5)ncc3C(F)(F)F)cc21 [Example 29, 2-(2-((7-Cyclopropyl-1,2,3,4-tetrahydroisoquinolin-6-yl)amino)-5-(trifluoromethyl)pyrimidin-4-yl)-6,7-dihydrothieno[3,2-c]pyridin-4(5H)-one] | ≤ 10 nM |
| Cn1ccc2sc(-c3nc(Nc4cc5c(cc4Cl)CNCC5)ncc3C(F)(F)F)cc2c1=O [Example 30, 2-(2-((7-Chloro-1,2,3,4-tetrahydroisoquinolin-6-yl)amino)-5-(trifluoromethyl)pyrimidin-4-yl)-5-methylthieno[3,2-c]pyridin-4(5H)-one] | ≤ 10 nM |
| Cn1ncc2sc(-c3nc(Nc4cc5c(cc4Cl)CNCC5)ncc3C(F)(F)F)cc2c1=O [Example 31, 2-(2-((7-Chloro-1,2,3,4-tetrahydroisoquinolin-6-yl)amino)-5-(trifluoromethyl)pyrimidin-4-yl)-5-methylthieno[2,3-d]pyridazin-4(5H)-one] | ≤ 10 nM |
| CS(=O)(=O)c1csc(-c2nc(Nc3cc4c(cc3Cl)CNCC4)ncc2C(F)(F)F)c1 [Example 32, 7-Chloro-N-(4-(4-(methylsulfonyl)thiophen-2-yl)-5-(trifluoromethyl)pyrimidin-2-yl)-1,2,3,4-tetrahydroisoquinolin-6-amine] | ≤ 10 nM |
| O=C1NCCc2sc(-c3nc(Nc4cc5c(cc4Cl)CNC5)ncc3C(F)(F)F)cc21 [Example 33, 2-(2-((6-Chloroisoindolin-5-yl)amino)-5-(trifluoromethyl)pyrimidin-4-yl)-6,7-dihydrothieno[3,2-c]pyridin-4(5H)-one] | ≤ 10 nM |
| CCc1cc2c(cc1Nc1ncc(C(F)(F)F)c(-c3cc4c(s3)CCNC4=O)n1)CCNC2 [Example 34, 2-(2-((7-ethyl-1,2,3,4-tetrahydroisoquinolin-6-yl)amino)-5-(trifluoromethyl)pyrimidin-4-yl)-6,7-dihydrothieno[3,2-c]pyridin-4(5H)-one] | ≤ 10 nM |
| CSc1cc2c(cc1Nc1ncc(C(F)(F)F)c(-c3cc4c(s3)CCNC4=O)n1)CCNC2 [Example 35, 2-(2-((7-(Methylthio)-1,2,3,4-tetrahydroisoquinolin-6-yl)amino)-5-(trifluoromethyl)pyrimidin-4-yl)-6,7-dihydrothieno[3,2-c]pyridin-4(5H)-one] | ≤ 10 nM |
| CN1CCN(c2ccc(Nc3ncc(C(F)(F)F)c(-c4cc5c(s4)CCNC5=O)n3)c(C3CC3)c2)CC1 [Example 36, 2-(2-((2-Cyclopropyl-4-(4-methylpiperazin-1-yl)phenyl)amino)-5-(trifluoromethyl)pyrimidin-4-yl)-6,7-dihydrothieno[3,2-c]pyridin-4(5H)-one] | ≤ 10 nM |
| CCc1cc(N2CCN(C)CC2)ccc1Nc1ncc(C(F)(F)F)c(-c2cc(C(N)=O)cs2)n1 [Example 37, 5-(2-((2-Ethyl-4-(4-methylpiperazin-1-yl)phenyl)amino)-5-(trifluoromethyl)pyrimidin-4-yl)thiophene-3-carboxamide] | ≤ 10 nM |
| CP(C)(=O)c1csc(-c2nc(Nc3cc4c(cc3Cl)CNCC4)ncc2C(F)(F)F)c1 [Example 38, (5-(2-((7-Chloro-1,2,3,4-tetrahydroisoquinolin-6-yl)amino)-5-(trifluoromethyl)pyrimidin-4-yl)thiophen-3-yl)dimethylphosphine oxide] | 10 to 50 nM |
| CCc1cc(N2CCN(C)CC2)ccc1Nc1ncc(C(F)(F)F)c(-c2cc3c(s2)CCNC3=O)n1 [Example 39, 2-(2-((2-ethyl-4-(4-methylpiperazin-1-yl)phenyl)amino)-5-(trifluoromethyl)pyrimidin-4-yl)-6,7-dihydrothieno[3,2-c]pyridin-4(5H)-one] | ≤ 10 nM |
| CC1(C)NC(=O)c2cc(-c3nc(Nc4cc5c(cc4Cl)CNCC5)ncc3C(F)(F)F)sc21 [Example 40, 2-(2-((7-chloro-1,2,3,4-tetrahydroisoquinolin-6-yl)amino)-5-(trifluoromethyl)pyrimidin-4-yl)-6,6-dimethyl-5,6-dihydro-4H-thieno[2,3-c]pyrrol-4-one] | ≤ 10 nM |
| COCCN1CCCc2sc(-c3nc(Nc4cc5c(cc4Cl)CNCC5)ncc3C(F)(F)F)cc2C1=O [Example 41, 2-(2-((7-chloro-1,2,3,4-tetrahydroisoquinolin-6-yl)amino)-5-(trifluoromethyl)pyrimidin-4-yl)-5-(2-methoxyethyl)-5,6,7,8-tetrahydro-4H-thieno[3,2-c]azepin-4-one] | 10 to 50 nM |
| CN1C(=O)c2cc(-c3nc(Nc4cc5c(cc4Cl)CNCC5)ncc3C(F)(F)F)sc2C1(C)C [Example 42, 2-(2-((7-chloro-1,2,3,4-tetrahydroisoquinolin-6-yl)amino)-5-(trifluoromethyl)pyrimidin-4-yl)-5,6,6-trimethyl-5,6-dihydro-4H-thieno[2,3-c]pyrrol-4-one] | ≤ 10 nM |
| O=C1NCCc2sc(-c3nc(Nc4cc5c(cc4F)CNCC5)ncc3C(F)(F)F)cc21 [Example 43, 2-(2-((7-fluoro-1,2,3,4-tetrahydroisoquinolin-6-yl)amino)-5-(trifluoromethyl)pyrimidin-4-yl)-6,7-dihydrothieno[3,2-c]pyridin-4(5H)-one] | ≤ 10 nM |
| CS(=O)(=O)N1CCc2sc(-c3nc(Nc4cc5c(cc4Cl)CNCC5)ncc3C(F)(F)F)cc2C1=O [Example 44, 2-(2-((7-chloro-1,2,3,4-tetrahydroisoquinolin-6-yl)amino)-5-(trifluoromethyl)pyrimidin-4-yl)-5-(methylsulfonyl)-6,7-dihydrothieno[3,2-c]pyridin-4(5H)-one] | ≤ 10 nM |
